Test results reported in US8754242B2, “Herbicides” (Syngenta Crop Protection LLC, priority 2007, dated 2014).

What was measured:
Assay type in all cases: in vivo
[1] = tested on: Alopecurus myosuroides (ALOMY); assay: Test Example 1 pre-emergence herbicidal activity; conditions: Alopecurus myosuroides, 480 h, rate 250 g/ha, evaluated 20 days later, read-out: Pre-emergence activity ALOMY (100=total damage to plant; 0=no damage to plant)
Method in brief: (§1)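 Plants sown in standard soil in pots; sprayed 1 day after sowing (pre-emergence) or after 10 days' glasshouse cultivation (post-emergence) with aqueous spray of compound formulated in acetone plus Emulsogen EL/N-methylpyrrolidone/dipropylene glycol monomethyl ether/X-77 solution. Damage scored 0–100 (100 = total damage) after 20 days (pre) or 15 days (post).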

[2] = tested on: Avena fatua (AVEFA); assay: Test Example 1 pre-emergence herbicidal activity; conditions: Avena fatua, 480 h, rate 250 g/ha, evaluated 20 days later, read-out: Pre-emergence activity AVEFA (100=total damage to plant; 0=no damage to plant)
Method in brief: as §1

[3] = tested on: Digitaria sanguinalis (DIGSA); assay: Test Example 1 pre-emergence herbicidal activity; conditions: Digitaria sanguinalis, 480 h, rate 250 g/ha, evaluated 20 days later, read-out: Pre-emergence activity DIGSA (100=total damage to plant; 0=no damage to plant)
Method in brief: as §1

[4] = tested on: Echinochloa crus-galli (ECHCG); assay: Test Example 1 pre-emergence herbicidal activity; conditions: Echinochloa crus-galli, 480 h, rate 250 g/ha, evaluated 20 days later, read-out: Pre-emergence activity ECHCG (100=total damage to plant; 0=no damage to plant)
Method in brief: as §1

[5] = tested on: Lolium perenne (LOLPE); assay: Test Example 1 pre-emergence herbicidal activity; conditions: Lolium perenne, 480 h, rate 250 g/ha, evaluated 20 days later, read-out: Pre-emergence activity LOLPE (100=total damage to plant; 0=no damage to plant)
Method in brief: as §1

[6] = tested on: Setaria faberi (SETFA); assay: Test Example 1 pre-emergence herbicidal activity; conditions: Setaria faberi, 480 h, rate 250 g/ha, evaluated 20 days later, read-out: Pre-emergence activity SETFA (100=total damage to plant; 0=no damage to plant)
Method in brief: as §1

[7] = tested on: Alopecurus myosuroides (ALOMY); assay: Test Example 1 post-emergence herbicidal activity; conditions: 360 h, rate 125 g/ha, evaluated 15 days later, read-out: Post-emergence activity ALOMY (100=total damage to plant; 0=no damage to plant)
Method in brief: as §1

[8] = tested on: Avena fatua (AVEFA); assay: Test Example 1 post-emergence herbicidal activity; conditions: 360 h, rate 125 g/ha, evaluated 15 days later, read-out: Post-emergence activity AVEFA (100=total damage to plant; 0=no damage to plant)
Method in brief: as §1

[9] = tested on: Digitaria sanguinalis (DIGSA); assay: Test Example 1 post-emergence herbicidal activity; conditions: 360 h, rate 125 g/ha, evaluated 15 days later, read-out: Post-emergence activity DIGSA (100=total damage to plant; 0=no damage to plant)
Method in brief: as §1

[10] = tested on: Echinochloa crus-galli (ECHCG); assay: Test Example 1 post-emergence herbicidal activity; conditions: 360 h, rate 125 g/ha, evaluated 15 days later, read-out: Post-emergence activity ECHCG (100=total damage to plant; 0=no damage to plant)
Method in brief: as §1

[11] = tested on: Lolium perenne (LOLPE); assay: Test Example 1 post-emergence herbicidal activity; conditions: 360 h, rate 125 g/ha, evaluated 15 days later, read-out: Post-emergence activity LOLPE (100=total damage to plant; 0=no damage to plant)
Method in brief: as §1

[12] = tested on: Setaria faberi (SETFA); assay: Test Example 1 post-emergence herbicidal activity; conditions: 360 h, rate 125 g/ha, evaluated 15 days later, read-out: Post-emergence activity SETFA (100=total damage to plant; 0=no damage to plant)
Method in brief: as §1

Compound	pest or weed control at 250 g/ha [1] [%]	pest or weed control at 250 g/ha [2] [%]	pest or weed control at 250 g/ha [3] [%]	pest or weed control at 250 g/ha [4] [%]	pest or weed control at 250 g/ha [5] [%]	pest or weed control at 250 g/ha [6] [%]	pest or weed control at 125 g/ha [7] [%]	pest or weed control at 125 g/ha [8] [%]	pest or weed control at 125 g/ha [9] [%]	pest or weed control at 125 g/ha [10] [%]	pest or weed control at 125 g/ha [11] [%]	pest or weed control at 125 g/ha [12] [%]
Cc1cc(C)c(C2=C(O)[C@@H]3[C@@H]4O[C@@H](C[C@H]4c4cnc5ccccc5n4)[C@@H]3C2=O)c(C)c1 [Example T188]	40	0	100	60	50	70	80	70	100	100	30	70
CCc1cc(C)cc(CC)c1C1=C(O)[C@@H]2[C@@H]3O[C@@H](C[C@H]3c3ccc([N+](=O)[O-])cc3)[C@@H]2C1=O [Example T158]	60	50	70	50	70	70	90	90	100	100	80	100
CCc1cc(C)cc(CC)c1C1=C(O)[C@@H]2[C@@H]3O[C@@H](C[C@H]3c3cccc(C)c3)[C@@H]2C1=O [Example T179]	70	60	60	70	80	10	80	80	50	70	80	10
Cc1ccc([C@@H]2C[C@@H]3O[C@H]2[C@H]2C(O)=C(c4c(C)cc(C)cc4C)C(=O)[C@H]23)cc1 (racemic) [Example T71]	30	0	50	50	0	20	50	10	70	60	20	50
CCc1cc(C)cc(CC)c1C1=C(O)[C@@H]2[C@@H]3O[C@@H](C[C@H]3c3cccc(C(F)(F)F)c3)[C@@H]2C1=O [Example T154]	70	50	70	100	80	70	90	60	70	100	60	70
CSc1ccc([C@@H]2C[C@@H]3O[C@H]2[C@H]2C(O)=C(c4c(C)cc(C)cc4C)C(=O)[C@H]23)cc1 [Example T66]	30	60	90	70	40	100	80	80	90	80	50	80
